{"source": "patent US20240246941A1", "about": "“SUBSTITUTED 4-(3-AMINOPROP-1-YL)AMINOQUINOLINE ANALOGS AS MODULATORS OF MELANOMA-ASSOCIATED ANTIGEN 11 UBIQUITIN LIGASE” (ST. JUDE CHILDREN'S RESEARCH HOSPITAL, INC., priority 2020, published 2024)", "key": {"[1]": {"molecular_target": "interaction between GST-MAGEA11 MHD and FAM-PCF11_4 peptide (MAGE-A11:PCF11) (Homo sapiens (Human), UniProt P43364)", "sequence (P43364 218-429)": "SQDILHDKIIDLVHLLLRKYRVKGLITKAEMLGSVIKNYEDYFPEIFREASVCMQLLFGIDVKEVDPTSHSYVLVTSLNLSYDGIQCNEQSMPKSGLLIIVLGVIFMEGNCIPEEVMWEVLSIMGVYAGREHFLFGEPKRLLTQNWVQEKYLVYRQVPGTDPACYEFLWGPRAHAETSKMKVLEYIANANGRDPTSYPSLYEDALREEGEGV", "test": "TR-FRET dose response competition assay for disruption of MAGE-A11:PCF11 binding", "method_in_brief": "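Competition TR-FRET at room temperature in 50 mM Tris pH 7.5, 20 mM MgCl2, 0.1 mg/ml BSA, 1 mM DTT: final 5 nM GST-MAGEA11 MHD, 5 nM Tb-anti-GST, 200 nM FAM-PCF11_4, 90 min. Ratio 520/490 nm converted to % inhibition; IC50 from sigmoidal fit.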"}, "[2]": {"molecular_target": "MAGE-A11:PCF11 (Homo sapiens (Human), UniProt P43364)", "sequence (P43364 218-429)": "as above", "test": "TR-FRET single point screening at 15 μM", "format": "binding", "set-up": "unit not given here", "conditions": "single point TR-FRET screening at 15 μM against MAGE-A11:PCF11", "method_in_brief": "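Single-point screen at 15 μM (0.25% DMSO) measuring disruption of GST-MAGEA11 (5 nM) binding to FAM-PCF11_4 peptide (200 nM) detected by Tb-anti-GST (5 nM). Buffer 50 mM Tris pH 7.5, 20 mM MgCl2, 0.1 mg/ml BSA, 1 mM DTT; 90 min at ~25 °C; 520/490 nm ratio converted to % inhibition versus controls.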"}, "[3]": {"test": "Solubility assay (μSOL Evolution, UV)", "format": "physicochemical", "conditions": "18 h at RT in buffer; for solubility at 18 h: aqueous buffer, kinetic from dmso stock", "method": "Solubility assays were carried out on a Biomek FX lab automation workstation (Beckman Coulter, Inc., Fullerton, CA) using SOL Evolution software (pION Inc., Woburn, MA). The detailed method is described as follows. 10 μl of 10 mM compound stock (in DMSO) was added to 190 μl 1-propanol to make a reference stock plate. 5 μl from this reference stock plate were mixed with 70 μl 1-propanol and 75 μl citrate phosphate-buffered saline (PBS; isotonic) to make the reference plate, and the UV spectrum (250-500 nm) of the reference plate was read. 6 μl of 10 mM test compound stock was added to 594 μl buffer in a 96-well storage plate and mixed. The storage plate was sealed and incubated at RT for 18 h. The suspension was then filtered through a 96-well filter plate (pION Inc., Woburn, MA). 75 μl of filtrate was mixed with 75 μl 1-propanol to make the sample plate, and the UV spectrum of the sample plate was read. Calculations were carried out with μSOL Evolution software based on the area under the curve (AUC) of the UV spectrum of the sample and reference plates. All compounds were tested in triplicate."}, "[4]": {"test": "High throughput Caco-2 permeability", "format": "in vitro ADME", "conditions": "human, 10 μmol/l, 2 h, 37° C.", "method": "High throughput Caco-2 permeability was performed in the TranswellR 0.4 μm polycarbonate membrane 96-well system with modified methods. Caco-2 cells were maintained at 37° C. in a humidified incubator with an atmosphere of 5% CO2. The cells were cultured in 75 cm^2 flasks with Dulbecco's Modified Eagle's Medium (DMEM) containing 10% (v/v) FBS, 1% (v/v) non-essential amino acids (NEAA), 100 units/ml of penicillin, and 100 μg/ml of streptomycin. The Caco-2 cells were seeded onto inserts at a density of 2×10^4 cells/insert separately. The medium in the wells was exchanged each other day, and the trans epithelial electrical resistance (TEER) value was measured using an epithelial voltohm meter (Millipore, Billerica, Massachusetts). […] For transport experiments, each cultured monolayer on the 96-well plate was washed twice with a transport buffer (HBSS containing 25 mM HEPES, pH 7.4). The permeability assay was initiated by the addition of each compound solution (10 μmol/l) into inserts (apical side, A) or receivers (basolateral side, B). The Caco-2 cell monolayers were incubated for 2 h at 37° C. Fractions were collected from receivers (if apical to basal permeability) or inserts (if basal to apical permeability), and concentrations were assessed by UPLC/MS (Waters; Milford, MA). All compounds were tested in triplicates. The A→B (or B→A) apparent permeability coefficients (Papp) of each compound were calculated using the equation, Papp=dQ/dt×1/AC0, where dQ/dt equals the flux of a drug across the monolayer, A equals the total insert well surface area, and C0 is the initial concentration of substrate in the donor compartment. The efflux ratio was determined by dividing the Papp in the B-A direction by the Papp in the A-B direction."}, "[5]": {"conditions": "Table 8, representative compounds, read-out: TR-FRET IC50"}, "[6]": {"conditions": "Table 6, 4-aminoquinoline compounds, read-out: TR-FRET, IC50"}, "[7]": {"conditions": "Caco-2, pH 7.4, apical to basolateral, read-out: Caco-2 permeability, A/B"}, "[8]": {"conditions": "Caco-2, pH 7.4, basolateral to apical, read-out: Caco-2 permeability, B/A"}, "[9]": {"conditions": "Table 5, dose response TR-FRET screening of 59 quinoline compounds against MAGE-A11:PCF11, read-out: TR-FRET IC50"}, "[10]": {"conditions": "Dose response TR-FRET screening of nine scaffold groups against MAGE-A11:PCF11, read-out: consensus IC50"}}, "note": "Where two headings read alike, the source gives them in different places."}
{"smiles": "CCCN(CCCCNc1ccnc2cc(Cl)ccc12)Cc1cc(Br)ccc1O", "note": "[SJ000311196]", "values": [{"measurement": "IC50", "setting": "[1]; [5]", "value": 69.9, "unit": "µM"}, {"measurement": "TR-FRET signal", "setting": "[2]", "value": 5.724}]}
{"smiles": "FC(F)(F)c1cc(-c2ccc3c(NCCCNCc4ccco4)ccnc3c2)cc(C(F)(F)F)c1", "note": "[SJ000311270-01]", "values": [{"measurement": "IC50", "setting": "[1]; [6]", "value": 0.58, "unit": "µM"}, {"measurement": "Solubility", "setting": "[3]", "value": 61.08, "unit": "µM"}, {"measurement": "Papp at 2 h, 10 μmol/l", "setting": "[4]; [7]", "value": 0.326, "unit": "×10⁻⁶ cm/s"}, {"measurement": "Papp at 2 h, 10 μmol/l", "setting": "[4]; [8]", "value": 0.079, "unit": "×10⁻⁶ cm/s"}]}
{"smiles": "CC(C)(C)c1ccc(-c2ccc3c(NCCCNCc4ccco4)ccnc3c2)cc1", "note": "[SJ000311286-01]", "values": [{"measurement": "IC50", "setting": "[1]; read-out: IC50 by TR-FRET for disrupting MAGE-A11:PCF11 interaction", "value": 1.16, "unit": "µM"}, {"measurement": "Solubility", "setting": "[3]", "value": 56.16, "unit": "µM"}, {"measurement": "Papp at 2 h, 10 μmol/l", "setting": "[4]; [7]", "value": 0.578, "unit": "×10⁻⁶ cm/s"}, {"measurement": "Papp at 2 h, 10 μmol/l", "setting": "[4]; [8]", "value": 0.12, "unit": "×10⁻⁶ cm/s"}]}
{"smiles": "FC(F)(F)c1ccc2c(NCCCNCc3ccc4c(c3)OCO4)ccnc2c1", "note": "[SJ000361106-02, N^1-(Benzo[d][1,3]dioxol-5-ylmethyl)-N^3-(7-(trifluoromethyl)quinolin-4-yl)propane-1,3-diamine]", "values": [{"measurement": "IC50", "setting": "[1]; [6]", "value": "> 74", "unit": "µM"}, {"measurement": "IC50", "setting": "[1]; [5]", "value": 69.9, "unit": "µM"}, {"measurement": "solubility at 18 h", "setting": "[3]", "value": 129, "unit": "µM"}, {"measurement": "Papp at 2 h, 10 μmol/l", "setting": "[4]; [7]", "value": 47, "unit": "×10⁻⁶ cm/s"}, {"measurement": "Papp at 2 h, 10 μmol/l", "setting": "[4]; [8]", "value": 40, "unit": "×10⁻⁶ cm/s"}]}
{"smiles": "FC(F)(F)c1ccc2c(NCCCNCc3ccco3)ccnc2c1", "note": "[SJ000361113-02, N^1-(Furan-2-ylmethyl)-N^3-(7-(trifluoromethyl)quinolin-4-yl)propane-1,3-diamine]", "values": [{"measurement": "IC50", "setting": "[1]; [6]", "value": "> 70", "unit": "µM"}, {"measurement": "solubility at 18 h", "setting": "[3]", "value": 119, "unit": "µM"}, {"measurement": "Papp at 2 h, 10 μmol/l", "setting": "[4]; [7]", "value": 50.2, "unit": "×10⁻⁶ cm/s"}, {"measurement": "Papp at 2 h, 10 μmol/l", "setting": "[4]; [8]", "value": 40.1, "unit": "×10⁻⁶ cm/s"}]}
{"smiles": "Clc1ccc2c(NCCCNCc3ccc4[nH]ccc4c3)ccnc2c1", "note": "[SJ000520909-03, N^1-((1H-Indol-5-yl)methyl)-N^3-(7-chloroquinolin-4-yl)propane-1,3-diamine]", "values": [{"measurement": "IC50", "setting": "[1]; [6]", "value": 0.24, "unit": "µM"}, {"measurement": "IC50", "setting": "[1]; [5]", "value": 67.1, "unit": "µM"}, {"measurement": "solubility at 18 h", "setting": "[3]", "value": 59.8, "unit": "µM"}, {"measurement": "Papp at 2 h, 10 μmol/l", "setting": "[4]; [7]", "value": 19.6, "unit": "×10⁻⁶ cm/s"}, {"measurement": "Papp at 2 h, 10 μmol/l", "setting": "[4]; [8]", "value": 21.3, "unit": "×10⁻⁶ cm/s"}]}
{"smiles": "COC(=O)c1ccc(CNCCCNc2ccnc3cc(Cl)ccc23)cc1", "note": "[SJ000523067]", "values": [{"measurement": "IC50", "setting": "[1]; [5]", "value": 69.9, "unit": "µM"}]}
{"smiles": "Clc1cccc(-c2ccc(CNCCCNc3ccnc4cc(Cl)ccc34)o2)c1", "note": "[SJ000523069-1]", "values": [{"measurement": "IC50", "setting": "[1]; [9]", "value": "> 70", "unit": "µM"}]}
{"smiles": "CCCN(CCCNc1ccnc2cc(C(F)(F)F)ccc12)Cc1ccccc1OC", "note": "[SJ000523072-1]", "values": [{"measurement": "IC50", "setting": "[1]; [9]", "value": "> 70", "unit": "µM"}]}
{"smiles": "CCCCCCN(CCC)CCCNc1ccnc2cc(C(F)(F)F)ccc12", "note": "[SJ000523083-1]", "values": [{"measurement": "IC50", "setting": "[1]; [9]", "value": "> 70", "unit": "µM"}]}
{"smiles": "CCCN1C(=O)c2ccccc2NC1c1ccc(Cl)cc1", "note": "(stereo not shown) [SJ000550608-1]", "values": [{"measurement": "IC50", "setting": "[1]; [10]", "value": 69.9, "unit": "µM"}]}
{"smiles": "CCn1c2ccccc2c2cc(CNC3CCCCC3)ccc21", "note": "[SJ000550865-1]", "values": [{"measurement": "IC50", "setting": "[1]; [10]", "value": 69.9, "unit": "µM"}]}
{"smiles": "CCn1c2ccccc2c2cc(CN3CCCC(O)C3)ccc21", "note": "(stereo not shown) [SJ000550874-1]", "values": [{"measurement": "IC50", "setting": "[1]; [10]", "value": 69.9, "unit": "µM"}]}
{"smiles": "O=C1c2ccccc2NC(c2ccc(Cl)cc2Cl)N1Cc1ccccc1", "note": "(stereo not shown) [SJ000551164-1]", "values": [{"measurement": "IC50", "setting": "[1]; [10]", "value": 69.9, "unit": "µM"}]}
{"smiles": "CCCN1C(=O)c2ccccc2NC1c1cc(OC)c(OC)c(OC)c1", "note": "(stereo not shown) [SJ000551165-1]", "values": [{"measurement": "IC50", "setting": "[1]; [10]", "value": 69.9, "unit": "µM"}]}
{"smiles": "O=C1c2ccccc2NC(c2ccc(Cl)c(Cl)c2)N1Cc1ccccc1", "note": "(stereo not shown) [SJ000551208-1]", "values": [{"measurement": "IC50", "setting": "[1]; [10]", "value": 69.9, "unit": "µM"}]}
{"smiles": "COc1ccc(C2Nc3ccccc3C(=O)N2Cc2ccccc2)cc1", "note": "(stereo not shown) [SJ000551209-1]", "values": [{"measurement": "IC50", "setting": "[1]; [10]", "value": 69.9, "unit": "µM"}]}
{"smiles": "CCOc1ccc(N(C(C)=O)C2=C(N)C(=O)c3ccccc3C2=O)cc1", "note": "[SJ000558312-2]", "values": [{"measurement": "IC50", "setting": "[1]; [10]", "value": 65.7, "unit": "µM"}]}
{"smiles": "NC1=C(Nc2ccccc2)C(=O)c2ccccc2C1=O", "note": "[SJ000562543-1]", "values": [{"measurement": "IC50", "setting": "[1]; [10]", "value": 60.8, "unit": "µM"}]}
{"smiles": "Cc1ccccc1NC1=C(N)C(=O)c2ccccc2C1=O", "note": "[SJ000562551-1]", "values": [{"measurement": "IC50", "setting": "[1]; [10]", "value": 72.2, "unit": "µM"}]}
{"smiles": "Cc1ccc(NC2=C(N)C(=O)c3ccccc3C2=O)cc1", "note": "[SJ000562618-1]", "values": [{"measurement": "IC50", "setting": "[1]; [10]", "value": 60.6, "unit": "µM"}]}
{"smiles": "CCCCCCCCOc1ccc(NC2=C(N)C(=O)c3ccccc3C2=O)cc1", "note": "[SJ000562629-1]", "values": [{"measurement": "IC50", "setting": "[1]; [10]", "value": 54.8, "unit": "µM"}]}
